Tested on: BxPC3 tumor xenografts
Assay: Micro-PET imaging, BxPC3 tumor model
Assay type: in vivo, nude mice
Conditions: BxPC3-bearing tumor model mice, 60 min p.i.
Procedure: [^18F]AlF-NOTA-ADH-1 was evaluated by micro-PET imaging on nude mice bearing a PDX tumor, SW-480 and BxPC3 tumor xenografts. Each tumor-bearing nude mouse was injected with 3.7MBq [^18F]AlF-NOTA-ADH-1 via the tail vein. After being anesthetized with isoflurane, tumor-bearing nude mice were imaged using a micro-PET/CT scanner at 60 minutes post-injection under continuous isoflurane inhalation using a nasal mask with a connecting tube. Micro-PET/CT scanning was performed after low-dose 3D acquisition CT scanning at 10 minutes per bed. A blocking study was conducted, in which a saturating dose of unlabeled ADH-1 (20 mg/kg of mouse body weight) was intravenously administered 60 min before the intravenous injection of [^18F]AlF-NOTA-ADH-1.
The three-dimensional volume of interest (VOI) was used to assess the standard uptake value (SUV) of selected organs. The Seimens Inveon analysis software configured with micro-PET/CT was used to delineate the region of interest along the edge of the tumor and each normal tissue on the PET image. Subsequently, the SUV of each region of interest was measured, and the tumor/non-tumor ratio (T/NT) between the tumor and normal tissue was measured.

With CC(=O)N[C@H]1CSSC[C@@H](C(=O)NCCNC(=O)CN2CCN(CC(=O)O)CCN(CC(=O)O)CC2)NC(=O)[C@H](C(C)C)NC(=O)[C@H](C)NC(=O)[C@H](Cc2c[nH]cn2)NC1=O [[^18F]AlF-NOTA-ADH-1] the “Micro-PET T/Bone” value was 0.055 ± 0.022, the “Micro-PET T/Lung” value was 0.291 ± 0.195 and the Micro-PET tumor/muscle ratio was 1.018 ± 0.498.
